One test deals with cbv1+β1 channels (UniProt Q16558+Q62976). The test can be described thus: Patch-clamp of heteromeric cbv1+β1 channels expressed in Xenopus oocytes. It counts as cell-based, rat. From the text:
cRNA Preparation and Injection into Xenopus Oocytes. Full-length cDNA coding for cbv1-subunits was cloned from rat cerebral artery myocytes by PCR and ligated to the PCR-XL-TOPO cloning vector (Invitrogen Corp., Carlsbad, Calif., United States of America) (Jaggar et al., 2005). cDNA coding for cbv1-subunits was cleaved from the cloning vector by BamHI (Invitrogen Corp., Carlsbad, Calif., United States of America) and XhoI (Promega, Madison, Wis., United States of America) and directly inserted into the pOX vector for expression in Xenopus oocytes. pOX-cbv1 was linearized with NotI (Promega, Madison, Wis., United States of America) and transcribed in vitro using T3 polymerase. Beta,-subunit cDNA inserted into the EcoR I/Sal I sites of the pCl-neo expression vector was linearized with NotI and transcribed in vitro using T7 polymerase. Beta4-subunit cDNA inserted into the pOx vector was linearized by NotI and transcribed using T3 polymerase. The mMessage-mMachine kit (Ambion Inc., Austin, Tex., United States of America) was used for transcription. The pOX vector and the cDNA coding for β1-subunits were generous gifts from Aguan Wei (Washington University, Saint Louis, Mo., United States of America) and Maria Garcia (Merck Research Laboratories, Whitehouse Station, N.J., United States of America).
Oocytes were removed from Xenopus laevis and prepared as described (Dopico et al., 1998). cRNA was dissolved in […] at 5 (cbv1) and 15 (β1 or β4) ng/μl; 1-μl aliquots were stored at −70° C. Cbv1 cRNA was injected alone (2.5 ng/μp) or coinjected with either β1 or β4 (7.5 ng/μl) cRNAs, giving molar ratios ≧6:1 (β:α). cRNA injection (23 nl/oocyte) was conducted using a modified micropipette (Drummond Scientific Co., Broomall, Pa., United States of America). The interval between injection and patch-clamp recordings was 48-72 h.
Electrophysiology. Oocytes were prepared for patch-clamp recordings as described (Dopico et al., 1998). Single-channel and macroscopic currents were recorded from inside-out (I/O) or outside-out (O/O) patches. For experiments with oocytes, both bath and electrode solutions contained (mM) 135 K^+ gluconate, 5 EGTA, 1 MgCl2, 15 HEPES, 10 glucose, pH 7.35. For experiments with myocytes, KCl substituted for K^+ gluconate. In all experiments, free Ca^2+ in solution was adjusted to the desired value by adding CaCl2. In most studies, free Ca^2+ in electrode solution=10 μM. In O/O studies with 17β-estradiol, however, free Ca^2+ in the electrode solution=0.3 μM. Nominal free Ca^2+ was calculated with MaxChelator Sliders (C. Patton, Stanford University, California, United States of America) and validated experimentally using Ca^2+-selective electrodes (Corning Incorporated Science Products Division, Corning, N.Y., United States of America).
Patch-recording electrodes were made as described (Dopico et al., 1998). Immediately before recording, the tip of each electrode was fire-polished on a microforge WPI MF-200 (World Precision Instruments, Inc., Sarasota, Fla., United States of America) to give resistances of 5-9 MD when filled with solution. An agar bridge with gluconate or Cl^− as the main anion (for oocyte and myocyte experiments, respectively) was used as ground electrode. After excision from the cell, the membrane patch was exposed to a stream of bath solution containing each agent at final concentration. Solutions were applied onto the patches using a pressurized system DAD12 (ALA Scientific Instruments, New York, N.Y., United States of America) via a micropipette tip with an internal diameter of 100 μm. Experiments were carried out at room temperature (21° C.).
(§1) Currents were recorded using an EPC8 amplifier (HEKA Electronics, Lambrecht/Pfalz, Germany) at 1 kHz using a low-pass, eight-pole Bessel filter 902LPF (Frequency Devices, Haverhill, Mass., United States of America). […]

Test [1] has as its target native BK channels in rat cerebral artery myocytes (Rattus norvegicus, UniProt P97678+Q62976). The test can be described thus: Inside-out patch-clamp of native BK channels in freshly isolated cerebral artery myocytes. Format: cell-based. To be noted: I/O patches, free Ca2+i 3 μM. The procedure: Myocyte Isolation. Basilar and middle cerebral arteries were dissected out from each brain under a stereozoom microscope (Nikon C-PS, Tokio, Japan) and placed into ice-cold “dissociation medium” (DM) (mM): 0.16 CaCl2, 0.49 EDTA, 10 HEPES, 5 KCl, 0.5 KH2PO4, 2 MgCl2, 110 NaCl, 0.5 NaH2PO4, 10 NaHCO3, 0.02 phenol red, 10 taurine, 10 glucose. Each artery was cut into 1-2 mm long rings (˜30 rings/experiment). Rings were put in 3 ml DM containing 0.03% papain, 0.05% bovine serum albumin (BSA) and 0.004% dithiothreitol (DTT) for 15 min at 37° C. in a polypropylene centrifuge tube, and then incubated in a shaking water bath at 37° C. and 60 oscillations/min. for 15 min. The prepartion was then centrifuged several times as described (Liu et al., 2004). […]
Electrophysiology. […] Single-channel and macroscopic currents were recorded from inside-out (I/O) or outside-out (O/O) patches. […] Nominal free Ca^2+ was calculated with MaxChelator Sliders (C. Patton, Stanford University, California, United States of America) and validated experimentally using Ca^2+-selective electrodes (Corning Incorporated Science Products Division, Corning, N.Y., United States of America). […]
as §1

Molecules are shown by their SMILES. Where “and” joins values, the source holds several entries; their conditions need not be identical. Equal entries are not always repeated. Where two headings read alike, the source gives them in different places.

Chain of cbv1+β1 channels (Q62976 1-1148 isoform Q62976-2): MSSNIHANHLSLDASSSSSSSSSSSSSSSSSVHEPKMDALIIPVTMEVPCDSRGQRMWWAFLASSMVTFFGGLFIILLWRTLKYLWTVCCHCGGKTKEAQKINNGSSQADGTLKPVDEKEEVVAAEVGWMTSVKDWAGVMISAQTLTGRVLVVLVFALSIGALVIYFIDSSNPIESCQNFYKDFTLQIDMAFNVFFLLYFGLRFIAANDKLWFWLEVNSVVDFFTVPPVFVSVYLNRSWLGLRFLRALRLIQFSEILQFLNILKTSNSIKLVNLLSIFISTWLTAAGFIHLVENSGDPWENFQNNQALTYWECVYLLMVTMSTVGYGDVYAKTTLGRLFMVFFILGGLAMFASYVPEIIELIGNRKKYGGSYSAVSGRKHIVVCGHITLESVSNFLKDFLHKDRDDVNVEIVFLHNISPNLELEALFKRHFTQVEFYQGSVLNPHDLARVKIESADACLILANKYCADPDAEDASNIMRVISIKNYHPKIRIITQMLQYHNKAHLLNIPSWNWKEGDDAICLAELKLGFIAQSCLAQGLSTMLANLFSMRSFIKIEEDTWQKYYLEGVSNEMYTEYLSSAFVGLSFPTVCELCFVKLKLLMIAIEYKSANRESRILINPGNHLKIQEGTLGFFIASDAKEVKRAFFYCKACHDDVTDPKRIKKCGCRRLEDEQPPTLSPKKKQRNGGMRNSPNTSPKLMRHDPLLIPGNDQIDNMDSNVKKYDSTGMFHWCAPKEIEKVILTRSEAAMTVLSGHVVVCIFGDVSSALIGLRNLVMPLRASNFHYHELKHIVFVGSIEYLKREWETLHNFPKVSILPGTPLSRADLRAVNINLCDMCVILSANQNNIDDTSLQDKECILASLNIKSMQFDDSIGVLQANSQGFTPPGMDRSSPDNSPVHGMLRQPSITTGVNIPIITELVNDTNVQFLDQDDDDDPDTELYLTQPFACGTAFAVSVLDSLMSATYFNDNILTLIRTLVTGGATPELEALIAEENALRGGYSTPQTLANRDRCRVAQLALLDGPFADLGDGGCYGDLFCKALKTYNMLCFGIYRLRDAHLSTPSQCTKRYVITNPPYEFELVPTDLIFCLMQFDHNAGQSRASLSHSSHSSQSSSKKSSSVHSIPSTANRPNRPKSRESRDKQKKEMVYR
Chain of cbv1+β1 channels (Q16558 whole entry): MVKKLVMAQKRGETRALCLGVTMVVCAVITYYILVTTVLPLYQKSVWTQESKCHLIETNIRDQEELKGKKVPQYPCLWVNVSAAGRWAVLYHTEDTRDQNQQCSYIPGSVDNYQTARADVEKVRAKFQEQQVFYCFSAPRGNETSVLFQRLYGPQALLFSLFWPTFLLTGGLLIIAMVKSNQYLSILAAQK
Chain of native BK channels in rat cerebral artery myocytes (Q62976 1-1148 isoform Q62976-2): as the sequence (Q62976 1-1148 isoform Q62976-2) above
Chain of native BK channels in rat cerebral artery myocytes (P97678 whole entry): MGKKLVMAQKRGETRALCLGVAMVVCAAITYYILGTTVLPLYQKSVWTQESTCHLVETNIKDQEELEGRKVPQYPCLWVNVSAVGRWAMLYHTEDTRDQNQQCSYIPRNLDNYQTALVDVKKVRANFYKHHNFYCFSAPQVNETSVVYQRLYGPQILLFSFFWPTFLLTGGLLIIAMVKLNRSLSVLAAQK

In the case of `C[C@H](CCC(=O)O)[C@H]1CC[C@H]2[C@@H]3CC[C@@H]4C[C@H](O)CC[C@]4(C)[C@H]3CC[C@]12C` [LC, 5β-cholanic acid 3α-ol], at cbv1+β1 channels (150 μM, 0.1 μM Ca2+), the “LC-activation (as a percentage of NPo in vehicle)” value is given as 139.9±32.9%. The Emax at 150 µM at cbv1+β1 channels (150 μM, 1 μM Ca2+, read-out: LC-activation (as a percentage of NPo in vehicle), maximal effect) came to 244 ± 58.9%. The Percent of control at 150 µM at cbv1+β1 channels (150 μM, 30 μM Ca2+i, read-out: NPo in LC (% of control)) came to 172 ± 9.5%; on cbv1+β1 channels (150 μM, patches with N=1, read-out: Channel mean closed time (% of control)), 41%; on cbv1+β1 channels (150 μM, patches with N=1, read-out: Channel mean open time (% of control)), 137%. At cbv1+β1 channels (150 μM, FIG. 4B), the “Decrease in mean close time” value is given as −60%. The “Increase in Po” value at cbv1+β1 channels (150 μM, single-channel I/O patch (N=1), +20 mV, Ca2+i 10 μM) turned out to be 320%. Moreover, the Emax on cbv1+β1 channels (I/O patches, Ca2+i 10 μM, read-out: NPo at Emax (% of control)) came out at 290 ± 45%; in test [1] (read-out: NPo at Emax (% of control)), 350%. For the same molecule, the EC50 is 43.5 µM and 46 µM at cbv1+β1 channels (I/O patches, Ca2+i 10 μM, ±20 mV, read-out: EC50 for increase in NPo); 46 ± 6 µM in test [1] (Vm −40 to −30 mV, read-out: EC50 for increase in NPo).

(Values after patent publication US20080200439A1, “Methods and compositions for modulating BK channel activity and vasodilation” (University of Tennessee Research Foundation, priority 2006, published 2008).)
